According to US11773085B2 (Foghorn Therapeutics Inc., priority 2018, dated 2023):

What was measured:
BRD9 bromodomain = BRD9 bromodomain (Homo sapiens (Human), UniProt Q9H8M2); assay: BRD9 bromodomain TR-FRET competition binding assay; conditions: 3 nM Flag-BRD9, 3.75 nM biotinylated ligand, 90 minutes at room temperature
Procedure: Cleaved His tag was removed by purification.
A mixture of biotinylated-ligand and SureLight™ Allophycocyanin-Streptavidin (APC-SA, PerkinElmer AD0201) in 50 mM HEPES (pH 7.4), 50 mM NaCl, 1 mM TCEP (pH 7), 0.01% (v/v) Tween-20, 0.01% (w/v) bovine serum albumin was added to a white 384-well PerkinElmer Proxiplate Plus plate. DMSO or 3-fold serially diluted compounds were then added to the Proxiplate followed by addition of Flag-BRD9. After a 10 minute incubation at room temperature, Eu-W1024 anti-FLAG (PerkinElmer, AD0273) was added.

[1] = target: Nanoluciferase-BRD9 fusion protein (3×FLAG-NLuc-BRD9) (Homo sapiens (Human), UniProt Q9H8M2); assay: SYO1 BRD9 NanoLuc degradation assay; type: cell-based; conditions: SYO-1 cells expressing 3×FLAG-NLuc-BRD9, 6 hours, 1 μM top dose; read-out: SYO1 BRD9-NanoLuc degradation IC50
Procedure: A stable SYO-1 cell line expressing 3×FLAG-NLuc-BRD9 was generated. On day 0 cells were seeded in 30 μL media into each well of 384-well cell culture plates. The seeding density was 8000 cells/well. […] Subsequently plates were incubated for 6 hours in a standard tissue culture incubator and equilibrated at room temperature for 15 minutes. Nanoluciferase activity was measured by adding 15 μL of freshly prepared Nano-Glo Luciferase Assay Reagent (Promega N1130), shaking the plates for 10 minutes and reading the bioluminescence using an EnVision reader.
The Inhibition % was calculated using the following formula: % Inhibition=100×(LumHC−LumSample)/(LumHC−LumLC). DMSO treated cells are employed as High Control (HC) and 1 μM of a known BRD9 degrader standard treated cells are employed as Low Control (LC).

Structure (SMILES) | IC50 (BRD9 bromodomain) [nM] | DC50 [1] [nM]
COc1cc(-c2cn(C)c(=O)c3cnccc23)cc(OC)c1CN(C)CC(=O)NCCCCCCCCCC(=O)N[C@H](C(=O)N1C[C@H](O)C[C@H]1C(=O)NCc1ccc(-c2scnc2C)cc1)C(C)(C)C (stereo in doubt) [Compound D18, (2S,4R)-1-[(2S)-2-[10-[2-([[2,6-dimethoxy-4-(2-methyl-1-oxo-2,7-naphthyridin-4-yl)phenyl]methyl](methyl)amino)acetamido]decanamido]-3,3-dimethylbutanoyl]-4-hydroxy-N-[[4-(4-methyl-1,3-thiazol-5-yl)phenyl]methyl]pyrrolidine-2-carboxamide] | < 10 | < 10
CNC(=O)[C@@H]1CCN1Cc1c(OC)cc(-c2cn(C)c(=O)c3cnccc23)cc1OC [Compound B56, (2S)-1-[[2,6-dimethoxy-4-(2-methyl-1-oxo-2,7-naphthyridin-4-yl)phenyl]methyl]-N-methylazetidine-2-carboxamide] | 10 to 100 | 
COc1cc(-c2cc(NC(=O)N(C)C)c3nnc(C)n3c2)cc(OC)c1CN(C)C [Compound B57, 1-(6-[4-[(dimethylamino)methyl]-3,5-dimethoxyphenyl]-3-methyl-[1,2,4]triazolo[4,3-a]pyridin-8-yl)-3,3-dimethylurea] | > 1000 | 
COc1cc(-c2cc(NC(=O)N(C)C)c3nncn3c2)cc(OC)c1CN(C)C [Compound B58, 1-(6-[4-[(dimethylamino)methyl]-3,5-dimethoxyphenyl]-[1,2,4]triazolo[4,3-a]pyridin-8-yl)-3,3-dimethylurea] | > 1000 | 
CNC(=O)c1ccc2c(-c3cc(OC)c(CN(C)C)c(OC)c3)cn(C)c(=O)c2c1 [Compound B59, 4-[4-[(dimethylamino)methyl]-3,5-dimethoxyphenyl]-N,2-dimethyl-1-oxoisoquinoline-7-carboxamide] | 10 to 100 | 
COc1cc(-c2cc(NC(C)=O)c3nnc(C)n3c2)cc(OC)c1CN(C)C [Compound B60, N-(6-[4-[(dimethylamino)methyl]-3,5-dimethoxyphenyl]-3-methyl-[1,2,4]triazolo[4,3-a]pyridin-8-yl)acetamide] | 10 to 100 | 
COc1cc(-c2nn(C)c(=O)c3cnccc23)cc(OC)c1CN(C)C [Compound B62, 1-(4-((dimethylamino)methyl)-3,5-dimethoxyphenyl)-3-methylpyrido[3,4-d]pyridazin-4(3H)-one 2,2,2-trifluoroacetate] | 10 to 100 | 
CNC(=O)c1ccc2c(=O)n(C)cc(-c3cc(OC)c(CN(C)C)c(OC)c3)c2c1 [Compound B63, 4-(4-((dimethylamino)methyl)-3,5-dimethoxyphenyl)-N,2-dimethyl-1-oxo-12-dihydroisoquinoline-6-carboxamide] | 10 to 100 | 
COc1cc(-c2cn(C)c(=O)c3cc(-c4nc5ccncc5[nH]4)ccc23)cc(OC)c1CN(C)C [Compound B64, 4-[4-[(dimethylamino)methyl]-3,5-dimethoxyphenyl]-7-[1H-imidazo[4,5-c]pyridin-2-yl]-2-methylisoquinolin-1-one] | 10 to 100 | 
COc1cc(-c2cn(C)c(=O)c3ccc(-c4nc5cnccc5[nH]4)cc23)cc(OC)c1CN(C)C [Compound B65, 4-(4-((dimethylamino)methyl)-3,5-dimethoxyphenyl)-6-(1H-imidazo[4,5-c]pyridin-2-yl)-2-methylisoquinolin-1(2H)-one] | 10 to 100 | 
COc1c(CN(C)C)ccc(-c2cn(C)c(=O)c3cnccc23)c1F [Compound B66, 4-(4-((dimethylamino)methyl)-2-fluoro-3-methoxyphenyl)-2-methyl-2,7-naphthyridin-1(2H)-one] | 100 to 1000 | 
COc1cc(-c2cn(C)c(=O)c3cnccc23)cc(F)c1CN(C)C [Compound B67, 4-(4-((dimethylamino)methyl)-3-fluoro-5-methoxyphenyl)-2-methyl-2,7-naphthyridin-1(2H)-one] | 10 to 100 | 
COc1cc(/C=C/c2c(C)noc2C)cc(OC)c1CN(C)C [Compound B68] | > 1000 | 
COc1cc(-c2cn(C)c(=O)c3cnccc23)cc(OC)c1CN(C)CCN(C)CCOCCOc1cccc2c1C(=O)N(C1CCC(=O)NC1=O)C2=O (centres unmarked) [Compound D1, 4-[2-(2-[[2-([[2,6-dimethoxy-4-(2-methyl-1-oxo-2,7-naphthyridin-4-yl)phenyl]methyl](methyl)amino)ethyl](methyl)amino]ethoxy)ethoxy]-2-(2,6-dioxopiperidin-3-yl)isoindole-1,3-dione; formic acid] | 10 to 100 | 100 to 1000
COc1cc(-c2cn(C)c(=O)c3cnccc23)cc(OC)c1CN(C)CC(=O)NCCCCCCCCNc1cccc2c1C(=O)N(C1CCC(=O)NC1=O)C2=O (centres unmarked) [Compound D2, 2-([[2,6-dimethoxy-4-(2-methyl-1-oxo-1,2-dihydro-2,7-naphthyridin-4-yl)phenyl]methyl](methyl)amino)-N-(8-[[2-(2,6-dioxopiperidin-3-yl)-1,3-dioxo-2,3-dihydro-1H-isoindol-4-yl]amino]octyl)acetamide formic acid] | 10 to 100 | < 10
COc1cc(-c2cn(C)c(=O)c3cnccc23)cc(OC)c1CN(C)CC(=O)NCCCCCNc1cccc2c1C(=O)N(C1CCC(=O)NC1=O)C2=O (centres unmarked) [Compound D3, 2-([[2,6-dimethoxy-4-(2-methyl-1-oxo-1,2-dihydro-2,7-naphthyridin-4-yl)phenyl]methyl](methyl)amino)-N-(5-[[2-(2,6-dioxopiperidin-3-yl)-1,3-dioxo-2,3-dihydro-1H-isoindol-4-yl]amino]pentyl)acetamide formic acid] | 10 to 100 | 10 to 100
COc1cc(-c2cn(C)c(=O)c3cnccc23)cc(OC)c1CN(C)C(=O)CCCCCOc1cccc2c1C(=O)N(C1CCC(=O)NC1=O)C2=O (centres unmarked) [Compound D4, N-[[2,6-dimethoxy-4-(2-methyl-1-oxo-1,2-dihydro-2,7-naphthyridin-4-yl)phenyl]methyl]-6-[[2-(2,6-dioxopiperidin-3-yl)-1,3-dioxo-2,3-dihydro-1H-isoindol-4-yl]oxy]-N-methylhexanamide] |  | < 10
COc1cc(-c2cn(C)c(=O)c3cnccc23)cc(OC)c1CN(C)CC(=O)NCCCCCCCCNC(=O)COc1cccc2c1C(=O)N(C1CCC(=O)NC1=O)C2=O (centres unmarked) [Compound D5, N-[8-[2-([[2,6-dimethoxy-4-(2-methyl-1-oxo-1,2-dihydro-2,7-naphthyridin-4-yl)phenyl]methyl](methyl)amino)acetamido]octyl]-2-[[2-(2,6-dioxopiperidin-3-yl)-1,3-dioxo-2,3-dihydro-1H-isoindol-4-yl]oxy]acetamide] | < 10 | < 10
COc1cc(OCC(=O)NCCCCCCCCNc2cccc3c2C(=O)N(C2CCC(=O)NC2=O)C3=O)cc(-c2cn(C)c(=O)c3cnccc23)c1 (centres unmarked) [Compound D6, N-(8-((2-(2,6-dioxopiperidin-3-yl)-1,3-dioxoisoindolin-4-yl)amino)octyl)-2-(3-methoxy-5-(2-methyl-1-oxo-1,2-dihydro-2,7-naphthyridin-4-yl)phenoxy)acetamide] | 10 to 100 | < 10
COc1cc(-c2cn(C)c(=O)c3cnccc23)cc(OC)c1CN(C)CC(=O)N(C)CCCCCNc1cccc2c1C(=O)N(C1CCC(=O)NC1=O)C2=O (centres unmarked) [Compound D7, 2-([[2,6-dimethoxy-4-(2-methyl-1-oxo-1,2-dihydro-2,7-naphthyridin-4-yl)phenyl]methyl](methyl)amino)-N-(5-[[2-(2,6-dioxopiperidin-3-yl)-1,3-dioxo-2,3-dihydro-1H-isoindol-4-yl]amino]pentyl)-N-methylacetamide formic acid] | 10 to 100 | 10 to 100
COc1cc(NCC(=O)NCCCCCCCCNc2cccc3c2C(=O)N(C2CCC(=O)NC2=O)C3=O)cc(-c2cn(C)c(=O)c3cnccc23)c1 (centres unmarked) [Compound D8, N-(8-[[2-(2,6-dioxopiperidin-3-yl)-1,3-dioxo-2,3-dihydro-1H-isoindol-4-yl]amino]octyl)-2-[[3-methoxy-5-(2-methyl-1-oxo-1,2-dihydro-2,7-naphthyridin-4-yl)phenyl]amino]acetamide formic acid] | 10 to 100 | < 10
COc1cc(-c2cn(C)c(=O)c3cnccc23)cc(OCC(=O)NCCCCCCCCNc2cccc3c2C(=O)N(C2CCC(=O)NC2=O)C3=O)c1CN(C)C (centres unmarked) [Compound D9, 2-(2-((dimethylamino)methyl)-3-methoxy-5-(2-methyl-1-oxo-1,2-dihydro-2,7-naphthyridin-4-yl)phenoxy)-N-(8-((2-(2,6-dioxopiperidin-3-yl)-1,3-dioxoisoindolin-4-yl)amino)octyl)acetamide] | 10 to 100 | < 10
COc1cc(-c2cn(C)c(=O)c3cnccc23)cc(OC)c1CN(C)CCc1cccc2c1C(=O)N(C1CCC(=O)NC1=O)C2=O (centres unmarked) [Compound D17, 4-[2-([[2,6-dimethoxy-4-(2-methyl-1-oxo-2,7-naphthyridin-4-yl)phenyl]methyl](methyl)amino)ethyl]-2-(2,6-dioxopiperidin-3-yl)isoindole-1,3-dione] |  | > 1000
